Assay results: the NIST ThermoML archive (doi:10.1016/j.jct.2017.07.026)
Numbers after ± are expanded uncertainties.

Tests used:
[1] = 298.15 K, Liquid
[2] = mn = molality of the nth substance listed, in mol/kg; conditions: 298.15 K, 100 kPa, Liquid, Vibrating tube method

CCCCCC(C)C [2-methylheptane]
mass density ([1]; 100 kPa, Vibrating tube method): 693.9 ± 1.4 kg/m3

CCCCCC(C)C [2-methylheptane] + CO
mass density ([2]; m1 = 0.1174): 784.76 ± 0.33 kg/m3
mass density ([2]; m1 = 0.1406): 784.42 ± 0.33 kg/m3
mass density ([2]; m1 = 0.2155): 783.3 ± 0.33 kg/m3
mass density ([2]; m1 = 0.3711): 781.09 ± 0.33 kg/m3
mass density ([2]; m1 = 0.4177): 780.47 ± 0.33 kg/m3
mass density ([2]; m1 = 0.4497): 780.04 ± 0.33 kg/m3
mass density ([2]; m1 = 0.5259): 779.01 ± 0.33 kg/m3
mass density ([2]; m1 = 0.5815): 778.29 ± 0.34 kg/m3
mass density ([2]; m1 = 0.639): 777.54 ± 0.34 kg/m3
mass density ([2]; m1 = 0.7339): 776.35 ± 0.34 kg/m3

CCCC(C)C [2-methylpentane]
mass density ([1]; 100 kPa, Vibrating tube method): 648.48 ± 0.67 kg/m3

CCCC(C)C [2-methylpentane] + CO
mass density ([2]; m1 = 0.02577): 786.15 ± 0.33 kg/m3
mass density ([2]; m1 = 0.09112): 785.08 ± 0.33 kg/m3
mass density ([2]; m1 = 0.1002): 784.95 ± 0.33 kg/m3
mass density ([2]; m1 = 0.1267): 784.51 ± 0.33 kg/m3
mass density ([2]; m1 = 0.1833): 783.59 ± 0.33 kg/m3
mass density ([2]; m1 = 0.2247): 782.95 ± 0.33 kg/m3
mass density ([2]; m1 = 0.2392): 782.73 ± 0.33 kg/m3
mass density ([2]; m1 = 0.3355): 781.24 ± 0.33 kg/m3
mass density ([2]; m1 = 0.3506): 781.02 ± 0.33 kg/m3
mass density ([2]; m1 = 0.3833): 780.53 ± 0.33 kg/m3
mass density ([2]; m1 = 0.4498): 779.5 ± 0.33 kg/m3
mass density ([2]; m1 = 0.4937): 778.85 ± 0.34 kg/m3
mass density ([2]; m1 = 0.5032): 778.68 ± 0.34 kg/m3
mass density ([2]; m1 = 0.5629): 777.84 ± 0.34 kg/m3
mass density ([2]; m1 = 0.6343): 776.78 ± 0.34 kg/m3

CCC(C)CC [3-methylpentane]
mass density ([1]; 100 kPa, Vibrating tube method): 659.76 ± 0.68 kg/m3

CCC(C)CC [3-methylpentane] + CO
mass density ([2]; m1 = 0.02902): 786.12 ± 0.33 kg/m3
mass density ([2]; m1 = 0.04025): 785.97 ± 0.33 kg/m3
mass density ([2]; m1 = 0.06079): 785.65 ± 0.33 kg/m3
mass density ([2]; m1 = 0.07925): 785.37 ± 0.33 kg/m3
mass density ([2]; m1 = 0.1106): 784.93 ± 0.33 kg/m3
mass density ([2]; m1 = 0.2045): 783.51 ± 0.33 kg/m3
mass density ([2]; m1 = 0.307): 782.05 ± 0.33 kg/m3
mass density ([2]; m1 = 0.3825): 781.03 ± 0.33 kg/m3
mass density ([2]; m1 = 0.3944): 780.81 ± 0.34 kg/m3
mass density ([2]; m1 = 0.4638): 779.87 ± 0.33 kg/m3
mass density ([2]; m1 = 0.5751): 778.42 ± 0.33 kg/m3
mass density ([2]; m1 = 0.6145): 777.81 ± 0.34 kg/m3
mass density ([2]; m1 = 0.7207): 776.46 ± 0.34 kg/m3

CCCCCCC [heptane]
mass density ([1]; 101.33 kPa, Pycnometric method): 679.455 ± 0.22 kg/m3

CO [methanol]
mass density ([1]; 100 kPa, Vibrating tube method): 786.57 ± 0.33 kg/m3

CO [methanol] + CCC(C)CC
mass density ([2]; m2 = 0): 786.57 ± 0.33 kg/m3

CO [methanol] + CCCC(C)C
mass density ([2]; m2 = 0): 786.57 ± 0.33 kg/m3

CO [methanol] + CCCCCC(C)C
mass density ([2]; m2 = 0): 786.57 ± 0.33 kg/m3

Cc1ccccc1 [toluene]
mass density ([1]; 101.33 kPa, Pycnometric method): 862.214 ± 0.26 kg/m3
